Biological target: 5-hydroxytryptamine receptor 4 (Rattus norvegicus, UniProt Q62758)
Sequence (Q62758 whole entry): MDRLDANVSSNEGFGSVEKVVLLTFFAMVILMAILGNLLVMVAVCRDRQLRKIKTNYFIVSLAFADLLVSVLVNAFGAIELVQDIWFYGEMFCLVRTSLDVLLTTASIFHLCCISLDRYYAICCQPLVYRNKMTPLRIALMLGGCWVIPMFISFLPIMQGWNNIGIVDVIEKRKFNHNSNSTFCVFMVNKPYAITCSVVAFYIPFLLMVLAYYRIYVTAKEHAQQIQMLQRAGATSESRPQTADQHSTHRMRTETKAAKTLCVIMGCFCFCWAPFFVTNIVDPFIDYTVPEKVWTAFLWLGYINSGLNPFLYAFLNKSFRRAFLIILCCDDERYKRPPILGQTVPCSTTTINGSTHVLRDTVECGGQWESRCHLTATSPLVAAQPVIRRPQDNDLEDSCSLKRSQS

| SMILES | Ki |
| --- | --- |
| COc1cc(N)c(Cl)cc1C(=O)NC1CCN2CCCC1C2 (stereo unspecified) [NSC_3035240] | 27 nM |
| Cn1cc(CCN)c2cc(O)ccc21 [5-HT,omega-N-Me] | 263 nM |
| CN1C2CCC1CC(OC(=O)c1c[nH]c3ccccc13)C2 (stereo unspecified) | 159 nM |
| NCCc1c[nH]c2ccc(C(N)=O)cc12 [[3H]-5-carboxamidotryptamine] | 1000 nM |
| COc1ccc2[nH]cc(CCN)c2c1 [tryptamine, 5-Methoxy] | 112 nM |
| COc1cc(N)c(Cl)cc1C(=O)NC1CCN(CCCOc2ccc(F)cc2)CC1OC (stereo unspecified) [4-amino-5-chloro-N-(1-(3-(4-fluorophenoxy)propyl)-3-methoxypiperidin-4-yl)-2-methoxybenzamide] | 25 nM |

— BindingDB's records for doi:10.1016/0014-2999(96)00122-7 (Synaptic Pharmaceutical, 1996)
